System: AMPA receptor
Assay: Binding of 3H-AMPA to rat cerebra membranes
Settings: for activity compared with the substance of Example 56 in EP 572,852 and compound 16: 3H-AMPA binding; for Ki: displacement of 3H-AMPA, isolated membrane material from rat cerebra
Experimental: The pharmacological activity of the compounds I was investigated in isolated membrane material from rat cerebra. For this purpose, the membrane material was treated in the presence of the compounds according to the invention with the radiolabeled substances ^3 H-2-amino-3-hydroxy-5-methyl-4-isoxazolepropionic acid (^3 H-AMPA) [^3 H]-glycine or [^3 H]-kainate, these binding to specific receptors (AMPA, NMDA or kainate receptors). Subsequently, the radioactivity of the treated membranes was measured by scintillation counting. It was possible to determine from the bound radioactivity the amounts of bound ^3 H-AMPA, [^3 H]-glycine or [^3 H]-kainate, or in each case the amounts of these radiolabeled substances displaced. The dissociation constant KI (I=inhibitor) derived from this is a measure of the displacing action of the agent according to the invention and was found by iterative non-linear regression analysis using the statistical analysis system (SAS) on an IBM computer, similar to the "Ligand" program of P. J. Munson and D. Rodbard (Analytical Biochem. 107, 220 (1980), Ligand: Versatile Computerized Approach for Characterization of Ligand Binding Systems).
1. Binding of ^3 H-2-amino-3-hydroxy-5-methyl-4-isoxazolepropionic acid (^3 H-AMPA)
To prepare the membrane material, freshly removed rat cerebra were homogenized together with 15 times the volume of a buffer solution A comprising 30 mM α,α,α-tris(hydroxymethyl)methylamine hydrochloride (TRIS-HCl) and 0.5 mM ethylenediaminetetraacetic acid (EDTA), pH 7.4, using an Ultra-Turrax®. The suspension was centrifuged at 48,000 g for 20 min. After removal of the supernatant liquid, the protein-containing membrane material contained in the sediment was washed three times by suspension in buffer solution A and subsequent centrifugation at 48,000 g for 20 minutes each time. The membrane material was then suspended in 15 times the volume of buffer solution A and incubated at 37° C. for 30 min. The protein material was subsequently washed twice by centrifugation and suspension and stored at -70° C. until used.
For the binding assay, the protein material was thawed at 37° C. and washed twice by centrifugation at 48,000 g (20 min) and subsequent suspension in a buffer solution B comprising 50 mM TRIS-HCl, 0.1M potassium thiocyanate and 2.5 mM calcium chloride, pH 7.1. Subsequently, 0.25 mg of membrane material, 0.1 μCi of ^3 H-AMPA (60 Ci/mmol) and compound I were dissolved in 1 ml of buffer solution B and incubated on ice for 60 min. The incubated solution was filtered through a CF/B filter (from Whatman) which had previously been treated with a 0.5% strength aqueous solution of polyethyleneimine for at least 2 hours. The membrane residue was subsequently washed with 5 ml of cold buffer solution B in order to separate bound and free ^3 H-AMPA from one another. After measurement of the radioactivity of the bound ^3 H-AMPA in the membrane material by scintillation counting, the KI was determined by regression analysis of the displacement plots.

activity compared with the substance of Example 56 in EP 572,852 and compound 16 (comparison in words)	Ki [µM]	activity compared with 1-carbamoyl-7-pyrrolylquinoxalinedione (Example 56 in EP 572,852) (comparison in words, test not named)	SMILES
more active	< 10		O=C(Nn1c(=O)c(=O)[nH]c2cc(C(F)(F)F)ccc21)c1ccccc1 [Example 1, 1-Benzamido-6-trifluoromethylquinoxaline-2,3(1H,4H)-dione]
more active	< 10	distinctly more active	O=C(Nn1c(=O)c(=O)[nH]c2cc(C(F)(F)F)c(-n3cccc3)cc21)c1ccccc1 [Example 29, 1-Benzamido-7-(1-pyrrolyl)-6-trifluoromethylquinoxaline-2,3-(1H,4H)-dione]

Source: US5773439A, “Amido-quinoxalinediones, the preparation and use thereof” (BASF Aktiengesellschaft, priority 1994, dated 1998)
